Measurements reported in patent US20040191833A1, “Selective activation of cellular activities mediated through a common toll-like receptor” (3M Innovative Properties Company, priority 2003, published 2004).

Experiments:
human TLR7 [1] = target: T1, human TLR7 (Homo sapiens, UniProt Q9NYK1); experiment: TLR7 activation in Namalwa cells (IFN-α1 promoter luciferase reporter, N-TLR7/N-vector); format: cell-based; details: final IRM concentration 10 μM, 18 hours, normalized to the DMSO without compound control
T1 construct: expressed in transfected cells; host or cells: Namalwa cells (ATCC CRL-1432), pCI-neo vector, electroporated, G418 selected, with pIFN-α1-luc reporter
T1 sequence (Q9NYK1 27-1049): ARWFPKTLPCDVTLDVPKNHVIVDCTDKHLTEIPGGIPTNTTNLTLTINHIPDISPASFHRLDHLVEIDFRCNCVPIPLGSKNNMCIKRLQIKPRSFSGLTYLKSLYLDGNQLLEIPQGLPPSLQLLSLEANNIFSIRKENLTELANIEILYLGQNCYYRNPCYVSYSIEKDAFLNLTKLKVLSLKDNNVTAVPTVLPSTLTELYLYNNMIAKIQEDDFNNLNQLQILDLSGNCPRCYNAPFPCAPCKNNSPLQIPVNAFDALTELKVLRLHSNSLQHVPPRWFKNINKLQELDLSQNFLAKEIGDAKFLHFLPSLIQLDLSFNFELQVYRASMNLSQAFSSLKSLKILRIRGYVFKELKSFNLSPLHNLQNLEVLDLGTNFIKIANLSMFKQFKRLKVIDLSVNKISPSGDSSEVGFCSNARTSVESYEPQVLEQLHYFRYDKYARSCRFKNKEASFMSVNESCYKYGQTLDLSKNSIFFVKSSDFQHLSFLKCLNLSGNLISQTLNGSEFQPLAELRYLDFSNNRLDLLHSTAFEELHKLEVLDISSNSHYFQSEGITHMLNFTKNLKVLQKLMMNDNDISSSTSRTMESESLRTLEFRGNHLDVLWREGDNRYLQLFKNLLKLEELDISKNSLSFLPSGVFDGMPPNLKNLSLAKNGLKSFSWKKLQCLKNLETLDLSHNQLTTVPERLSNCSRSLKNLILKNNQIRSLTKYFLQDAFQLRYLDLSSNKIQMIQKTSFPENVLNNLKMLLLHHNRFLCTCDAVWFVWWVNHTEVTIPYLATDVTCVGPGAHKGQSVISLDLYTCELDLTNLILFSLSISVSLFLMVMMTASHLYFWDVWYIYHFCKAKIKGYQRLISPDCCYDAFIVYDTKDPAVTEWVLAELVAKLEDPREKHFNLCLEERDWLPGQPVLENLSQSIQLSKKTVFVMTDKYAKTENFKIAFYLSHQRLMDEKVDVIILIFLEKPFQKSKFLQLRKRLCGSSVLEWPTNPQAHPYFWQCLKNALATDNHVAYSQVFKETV
Experimental: (§1) In one embodiment, exemplified in Example 1, selective modulation of TLR7-mediated NF-κB activation and TLR7-mediated IFN-α1 induction were assayed. NF-κB activation was measured in genetically modified HEK293 cells (H-TLR7) by detecting TLR7-mediated NF-κB-dependent transcription of a luciferase reporter. IFN-α1 induction was measured in genetically modified Namalwa cells (N-TLR7) by detecting TLR-mediated IFN-α1-induced transcription of a luciferase reporter. Results are shown in Table 2 and are expressed as the fold increase in TLR7-mediated luciferase signal—(H-TLR7/H-vector) and (N-TLR7/N-vector), respectively—normalized to a control in which the cells were treated with vehicle that contained no IRM compound. In this assay, a compound was considered to induce the TLR7-mediated cellular activity if the compound generated at least a two-fold increase in the luciferase signal compared to the vector control.
Unless otherwise indicated, all incubations were performed at 37° C. with 5% CO2 at 98% humidity.
Culture medium was prepared from complete RPMI 1640 medium (BioSource International, Inc., Camarillo, Calif.). Fetal bovine serum (Atlas Biologicals, Inc., Ft. Collins, Colo.) was added to a final concentration of 7.5% (vol/vol); L-glutamine (BioSource International, Inc.) was added to 5 mM; and sodium pyruvate (BioSource International, Inc.) was added to 1 mM.
Namalwa cells were grown by incubation in culture medium overnight. Cells were harvested by centrifugation in a tabletop centrifuge (1200 RPM for 5 minutes), and then resuspended in phosphate buffered sucrose to a concentration of 1.3×10^7 cells/mL.
For each transfection, a 750 μL aliquot of the cell suspension was placed in an electroporation cuvette with 4 mm gaps. Each aliquot received transfection DNA: 10 μg of pGL3-Enhancing vector (Promega Corp., Madison, Wis.) containing the human IFN-α1 promoter cloned into the BglII site (pIFN-α1-luc), and 10 μg of pCI-neo mammalian expression vector (Promega Corp.) either (1) unmodified (N-vector) or (2) containing an expressible human TLR7 gene (N-TLR7). The cell and vector mixtures were incubated at room temperature for 5 minutes. The cells were electroporated using a BioRad Gene Pulser (BioRad Laboratories, Hercules, Calif.) set to at 500 μF capacitance and […], then incubated at room temperature for 5 minutes.
The electroporated cells were suspended in 10 mL of culture medium and incubated overnight. Dead cells and debris were removed after 24 hours using a MACS Dead Cell Removal kit (Miltenyi Biotec, Auburn, Calif.). Cells were resuspended in 10 mL of culture medium and incubated for an additional 24 hours.
Transfected cells were selected by adding G418 (Promega Corp., Madison, Wisc.) to a final concentration of 1 mg/mL and incubating the cells for seven days.
The selected transfected cells were counted and resuspended to a concentration of 1×10^6 cell per mL in culture medium. 100 μl aliquots of cells were placed in the wells of a white-walled, white-bottomed 96-well plate (Corning, Inc. Corning, N.Y.). 1.0 μL of an IRM compound from Table 1 (prepared at 1 mM in 100% DMSO) was added to some cell aliquots so that the final concentration of IRM compound was 10 μM. As a positive control, some cell aliquots were incubated with Sendai virus instead of IRM compound. As a negative control, some cell aliquots were incubated with DMSO without IRM compound. In all cases, the cells were incubated for 18 hours.
The plates were equilibrated to room temperature before 1 volume of reconstituted LucLight Plus (Packard Instruments, Meriden, Conn.) was added to each aliquot of cells. Each well of the plate was read on an LJL Analyst (LJL Biosystems, Inc., Sunnyvale, Calif.) set with a 5 minute dark adapt.
(§2) The data are expressed as fold increase in TLR7-mediated luciferase signal—(H-TLR7/H-vector) and (N-TLR7/N-vector), respectively—normalized to the DMSO without compound control.

human TLR7 [2] = target: T1, human TLR7; experiment: TLR7 activation in HEK293 cells (NF-kB-luc luciferase reporter, H-TLR7/H-vector); format: cell-based; details: final IRM concentration 10 μM, 16 hours, normalized to the DMSO without compound control
Experimental: as §1
HEK293 medium was prepared from 90% Minimum Essential Medium (MEM) with 2 mM L-glutamine and Earle's Balanced Salt Solution (Invitrogen Corp., Rockville, Md.) adjusted to contain 1.5 g/L sodium bicarbonate, 0.1 mM non-essential amino acids, and 1.0 mM sodium pyruvate; 10% heat-inactivated fetal calf serum. HEK293 cells were cultured by incubating cells in HEK293 medium overnight at 37° C, 8% CO2.
Twenty-four hours before transfection, HEK293 cells were adhered to a 10 cm dish (Corning 430167, Corning Inc., Corning, N.Y.) at 37° C., 8% CO2. The cells were co-transfected with (1) pIRES (BD Biosciences Clontech, Palo Alto, Calif.) either (a) unmodified (H-vector), or (b) containing an expressible human TLR7 gene (H-TLR7), and (2) NF-kB-luc reporter (Stratagene, La Jolla, Calif.) in a 10:1 ratio with Fugene 6 transfection reagent (Roche Diagnostics Corp., Indianapolis, Ind.) following the manufacturer's instructions. The plates were incubated for 24 hours following transfection and then selected in G-418 (400 μg/mL) for two weeks. The G-418-resistant cells containing either the expressible TLR7 gene or the empty vector were expanded in HEK293 medium supplemented with G-418 for stimulation experiments.
The transfected cells were plated in white opaque 96 well plates (Costar 3917, Corning Inc., Corning, N.Y.) at a concentration of 5×10^4 cells per well in 100 μL of HEK293 media and incubated at 37° C., 8% CO2 for 4 hours. The cells were stimulated with 1 μL of IRM compounds at 1 mM in DMSO (final IRM concentration of 10 μM) or 1 μL DMSO as a control. The plates were then incubated an additional 16 hours at 37° C., 5% CO2. The luciferase signal was read using the LucLite kit (Packard Instrument Co., Meriden, Conn.). Luminescence was measured on an LMAX luminometer (Molecular Devices Corp., Sunnyvale, Calif.).
as §2

## COCCOCc1nc2c(N)nc3ccccc3c2n1CCOc1ccccc1 [IRM15, 2-[(2-methoxyethoxy)methyl]-1-(2-phenoxyethyl)-1H-imidazo[4,5-c]quinolin-4-amine]
Human TLR7 [1]
  N-TLR7: fold increase in TLR7-mediated luciferase signal (N-TLR7/N-vector), IFN-α1 promoter reporter: 2.7 fold
Human TLR7 [2]
  H-TLR7: fold increase in TLR7-mediated luciferase signal (H-TLR7/H-vector), NF-κB-dependent reporter: 0.8 fold

## CCc1nc2c(N)nc3ccccc3c2n1CCOCCNC(=O)Nc1ccccc1 [IRM20, N-{2-[2-(4-amino-2-ethyl-1H-imidazo[4,5-c]quinolin-1-yl)ethoxy]ethyl}-N′-phenylurea]
Human TLR7 [1]
  N-TLR7: fold increase in TLR7-mediated luciferase signal (N-TLR7/N-vector), IFN-α1 promoter reporter: 3.7 fold
Human TLR7 [2]
  H-TLR7: fold increase in TLR7-mediated luciferase signal (H-TLR7/H-vector), NF-κB-dependent reporter: 0.8 fold

## CCOCc1nc2c(N)nc3ccccc3c2n1CCCCNC(=O)N1CCOCC1 [IRM18]
Human TLR7 [1]
  N-TLR7: fold increase in TLR7-mediated luciferase signal (N-TLR7/N-vector), IFN-α1 promoter reporter: 3.3 fold
Human TLR7 [2]
  H-TLR7: fold increase in TLR7-mediated luciferase signal (H-TLR7/H-vector), NF-κB-dependent reporter: 0.5 fold

## CCCCc1nc2c(N)nc(C)c(C)c2n1CCCCNC(=O)c1ccccc1 [IRM13, N-[4-(4-amino-2-butyl-6,7-dimethyl-1H-imidazo[4,5-c]pyridin-1-yl)butyl]benzamide]
Human TLR7 [1]
  N-TLR7: fold increase in TLR7-mediated luciferase signal (N-TLR7/N-vector), IFN-α1 promoter reporter: 2.6 fold
Human TLR7 [2]
  H-TLR7: fold increase in TLR7-mediated luciferase signal (H-TLR7/H-vector), NF-κB-dependent reporter: 1.0 fold

## CCCCSCCCCn1c(CC)nc2c(N)nc3ccccc3c21 [IRM6, 1-[4-(butylthio)butyl]-2-ethyl-1H-imidazo[4,5-c]quinolin-4-amine]
Human TLR7 [1]
  N-TLR7: fold increase in TLR7-mediated luciferase signal (N-TLR7/N-vector), IFN-α1 promoter reporter: 1.4 fold
Human TLR7 [2]
  H-TLR7: fold increase in TLR7-mediated luciferase signal (H-TLR7/H-vector), NF-κB-dependent reporter: 7.1 fold

## Cc1nc2c(N)nc3ccccc3c2n1CCOC/C=C/c1ccccc1 [IRM5, 2-methyl-1-(2-{[(2E)-3-phenylprop-2-enyl]oxy}ethyl)-1H-imidazo[4,5-c]quinolin-4-amine]
Human TLR7 [1]
  N-TLR7: fold increase in TLR7-mediated luciferase signal (N-TLR7/N-vector), IFN-α1 promoter reporter: 1.6 fold
Human TLR7 [2]
  H-TLR7: fold increase in TLR7-mediated luciferase signal (H-TLR7/H-vector), NF-κB-dependent reporter: 3.4 fold

## Nc1nc2ccccc2c2c1ncn2CCOCC#Cc1csc(C=O)c1 [IRM1, 4-{3-[2-(4-amino-1H-imidazo[4,5-c]quinolin-1-yl)ethoxy]-1-propynyl}-2-thiophenecarboxaldehyde]
Human TLR7 [1]
  N-TLR7: fold increase in TLR7-mediated luciferase signal (N-TLR7/N-vector), IFN-α1 promoter reporter: 1.6 fold
Human TLR7 [2]
  H-TLR7: fold increase in TLR7-mediated luciferase signal (H-TLR7/H-vector), NF-κB-dependent reporter: 13.2 fold

## Nc1nc2ccccc2c2c1ncn2CCOCCCc1cncnc1 [IRM12, 1-{2-[3-(5-pyrimidinyl)propoxy]ethyl}-1H-imidazo[4,5-c]quinolin-4-amine]
Human TLR7 [1]
  N-TLR7: fold increase in TLR7-mediated luciferase signal (N-TLR7/N-vector), IFN-α1 promoter reporter: 2.6 fold
Human TLR7 [2]
  H-TLR7: fold increase in TLR7-mediated luciferase signal (H-TLR7/H-vector), NF-κB-dependent reporter: 0.6 fold

## COCCc1nc2c(N)nc3ccccc3c2n1CC(C)(C)CNC(=O)Nc1ccccc1 [IRM4, N-{3-[4-amino-2-(2-methoxyethyl)-1H-imidazo[4,5-c]quinolin-1-yl]-2,2-dimethylpropyl}-N′-phenylurea]
Human TLR7 [1]
  N-TLR7: fold increase in TLR7-mediated luciferase signal (N-TLR7/N-vector), IFN-α1 promoter reporter: 1.6 fold
Human TLR7 [2]
  H-TLR7: fold increase in TLR7-mediated luciferase signal (H-TLR7/H-vector), NF-κB-dependent reporter: 15.0 fold

## CCCc1nc2c(N)nc3ccccc3c2n1CCCCS(C)(=O)=O [IRM21, 1-[4-(methylsulfonyl)butyl]-2-propyl-1H-imidazo[4,5-c]quinolin-4-amine]
Human TLR7 [1]
  N-TLR7: fold increase in TLR7-mediated luciferase signal (N-TLR7/N-vector), IFN-α1 promoter reporter: 3.8 fold
Human TLR7 [2]
  H-TLR7: fold increase in TLR7-mediated luciferase signal (H-TLR7/H-vector), NF-κB-dependent reporter: 0.7 fold

## CCC(C)NC(=S)NCCn1c(CCOC)nc2c(N)nc3ccccc3c21 (stereo not drawn) [IRM24, N-{2-[4-amino-2-(2-methoxyethyl)-1H-imidazo[4,5-c]quinolin-1-yl]ethyl}-N′-sec-butylthiourea]
Human TLR7 [1]
  N-TLR7: fold increase in TLR7-mediated luciferase signal (N-TLR7/N-vector), IFN-α1 promoter reporter: 3.2 fold
Human TLR7 [2]
  H-TLR7: fold increase in TLR7-mediated luciferase signal (H-TLR7/H-vector), NF-κB-dependent reporter: 7.9 fold

## CCCCc1nc2c(N)nc3ccccc3c2n1CCCNC(=O)c1cc2ccccc2cn1 [IRM3, N-[3-(4-amino-2-butyl-1H-imidazo[4,5-c]quinolin-1-yl)propyl]isoquinoline-3-carboxamide]
Human TLR7 [1]
  N-TLR7: fold increase in TLR7-mediated luciferase signal (N-TLR7/N-vector), IFN-α1 promoter reporter: 1.9 fold
Human TLR7 [2]
  H-TLR7: fold increase in TLR7-mediated luciferase signal (H-TLR7/H-vector), NF-κB-dependent reporter: 4.2 fold
